{
  "source": "patent US20250375420A1",
  "about": "(ZYLORION HEALTH INC., priority 2022, published 2025)",
  "key": {"[1]": {"assay": "Dynamic vapor sorption (DVS) analysis", "type": "physicochemical", "procedure": "Moisture sorption isotherms were collected on a DVS Adventure system from Surface Measurement Systems (London, UK). Sample size was circa 10 mg of solid material. A full sorption and desorption isotherm was recorded by varying the relative humidity from 40-95-0-40% in steps of 10% at a constant temperature of 25° C. Weight equilibration per step was set at dm/dt of 0.002%/min. Afterwards the sample was measured by HT-XRPD."}, "h5HT2a [2]": {"molecular_target": "T1, h5HT2a (Homo sapiens, UniProt P28223)", "T1 sequence (P28223 whole entry)": "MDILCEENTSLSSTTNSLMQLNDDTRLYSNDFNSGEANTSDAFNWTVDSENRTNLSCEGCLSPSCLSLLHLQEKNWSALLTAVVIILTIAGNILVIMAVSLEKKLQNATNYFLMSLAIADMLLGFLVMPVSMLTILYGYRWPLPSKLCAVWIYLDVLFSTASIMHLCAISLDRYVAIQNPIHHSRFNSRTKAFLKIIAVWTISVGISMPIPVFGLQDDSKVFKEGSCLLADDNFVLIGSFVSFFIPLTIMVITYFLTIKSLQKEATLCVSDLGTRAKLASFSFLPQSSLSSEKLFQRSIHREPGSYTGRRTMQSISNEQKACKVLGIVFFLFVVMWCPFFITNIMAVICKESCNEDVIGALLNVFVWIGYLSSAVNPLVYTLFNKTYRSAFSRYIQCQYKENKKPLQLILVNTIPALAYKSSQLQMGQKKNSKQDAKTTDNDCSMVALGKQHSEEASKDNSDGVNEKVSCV", "assay": "cell-based", "type": "cell-based", "parameters": "expressed in transfected cells; host or cells: CHO-K1 (AequoScreen line with aequorin in A1; membranes of stably expressing CHO-K1 cells in A3)", "protocol": "AequoScreen CHO-K1 cells stably-expressing h5HT2a contain an aequorin protein that, when bound to Ca^2+, is able to catalyze the breakdown of the molecule coelenterazine to produce light. Emitted light levels are proportional to endoplasmic reticulum Ca^2+ release. CHO-K1 cells were treated with between 0.1 nM-10 μM of each compound for 1 min before chemiluminescence is recorded. Resulting data are then fit to a three parameter non-linear regression to determine potency (EC50) and efficacy (Emax). Data were fit to a three-parameter non-linear regression in GraphPad (v. 9). n=3-29 independent experiments performed in duplicate or triplicate. Data are expressed as mean±SEM."}, "h5HT2a [3]": {"molecular_target": "T1, h5HT2a", "assay": "cell-based", "type": "cell-based", "parameters": "expressed in transfected cells; host or cells: CHO-K1", "protocol": "Compound activity was quantified as βarrestin2 recruitment from CHO-K1 cells expressing h5HT2a and treated with 0.1 nM-10 μM compounds.\nCHO-K1 cells express h5HT2a-smBIT and βarrestin2-lgBiT fusion proteins. When h5HT2a and βarrestin2 come into contact with one another the smBIT and IgBIT peptides complement each other to produce a complete NanoBit luciferase enzyme. When complete, the enzyme is able to catalyze the breakdown of the molecule coelenterazine to produce light. Emitted light levels are proportional to interactions between h5HT2a and βarrestin2. CHO-K1 cells were treated with between 0.1 nM-10 μM of each compound for 2 h, during which period chemiluminescence is recorded. Area under the curve data for cumulative chemiluminescence are then fit to a three-parameter non-linear regression to determine potency (EC50) and efficacy (Emax). Data were fit to a three-parameter non-linear regression in GraphPad (v. 9). n=3-13 independent experiments performed in duplicate or triplicate. Data are expressed as mean±SEM."}, "C57BL/6 mice [4]": {"tested_on": "C57BL/6 mice", "assay": "Head-twitch response (HTR)", "type": "in vivo, mouse", "conditions": "i.p.", "procedure": "C57BL/6 mice were treated with increasing doses of compounds as indicated via i.p. injection. Mice were placed inside a clear cylinder and video recorded for 10 min immediately after compound administration. Head-twitch was recorded by an individual blinded to treatment as a lateral, rhythmic shaking of the head distinct from grooming or vertical head nod. Data were plotted in GraphPad (v. 9). n≥3 animals per dose. Data are expressed as mean±SEM."}, "C57BL/6 mice [5]": {"tested_on": "C57BL/6 mice", "assay": "Body temperature relative to baseline (rectal thermometer)", "type": "in vivo, mouse", "conditions": "i.p., increasing doses, 20 min after administration", "procedure": "(§1) Compound activity was quantified in C57BL/6 mice for catalepsy (10 min) (top), nociception in the tail flick latency test (15 min) (middle), and body temperature relative to baseline (20 min) (bottom).\n(§2) C57BL/6 mice were treated with increasing doses of compounds as indicated via i.p. injection. Tests were as follows: Body temperature is taken before administration of the first dose of compound for baseline. Catalepsy—the bar holding assay, 10 min after compound administration. Mice are placed such that their forepaws clasp a 0.7 cm ring clamp positioned 4.5 cm above the surface of the testing space. The length of time the ring is held is recorded (sec). The trial is ended if the mouse turns its head or body, or makes 3 consecutive escape attempts, to a maximum of 60 sec. Nociception—15 min after compound administration the mouse's tail is placed in 52° C. water. Latency to remove the tail from water is recorded to a maximum of 20 sec. Body temperature—rectal thermometer 20 min after compound administration. Data were plotted in GraphPad (v. 9). n≥6 animals per dose. Data are expressed as mean±SEM."}, "C57BL/6 mice [6]": {"tested_on": "C57BL/6 mice", "assay": "Nociception, tail flick latency test (52° C. water)", "type": "in vivo, mouse", "conditions": "i.p., increasing doses, 15 min after administration", "procedure": "as §1, §2"}, "C57BL/6 mice [7]": {"tested_on": "C57BL/6 mice", "assay": "Catalepsy, bar holding assay", "type": "in vivo, mouse", "conditions": "i.p., increasing doses, 10 min after administration", "procedure": "as §1, §2"}, "C57BL/6 mice [8]": {"tested_on": "C57BL/6 mice", "assay": "Open field task (OFT)", "type": "in vivo, mouse", "conditions": "i.p., 30 min after administration; significant for movement and velocity, not time in center, at 7 or 10 mg/kg", "procedure": "C57BL/6 mice were treated with increasing doses of compounds as indicated via i.p. injection. Mice are placed in the open field 30 min after compound administration. The open field measures 1 m×1 m and the test lasts for 5 min. Total distance travelled, velocity, and time spent in the central quadrant of the field are recorded and analyzed using Etho Vision XT (Noldus, v. 17). Data were plotted in GraphPad (v. 9). n≥4 animals per dose. Data are expressed as mean±SEM."}, "C57BL/6 mice [9]": {"tested_on": "C57BL/6 mice", "assay": "Elevated plus maze (EPM)", "type": "in vivo, mouse", "conditions": "3 mg/kg i.p., 30 min, preliminary", "procedure": "Representative movement traces from Ethovision in male C57BL/6 mice (top, right).\nC57BL/6 mice were treated 3 mg/kg of compounds via i.p. injection. Mice are placed in the EPM 30 min after compound administration. The EPM measures 1 m×1 m and the test lasts for 5 min. Total distance travelled, velocity, arm entries, and time in each arm are recorded and analyzed using EthoVision XT (Noldus, v. 17). Data were plotted in GraphPad (v. 9). n=3-5 animals per treatment. Data are expressed as mean±SEM."}, "h5HT2a [10]": {"molecular_target": "T1, h5HT2a", "assay": "biochemical", "type": "binding", "parameters": "expressed in transfected cells; host or cells: CHO-K1 (AequoScreen line with aequorin in A1; membranes of stably expressing CHO-K1 cells in A3)", "conditions": "1 nM [3H]ketanserin, 0.1 nM-10 μM compound, 2 h", "protocol": "CHO-K1 cells stably-expressing h5HT2a are grown, collected, and frozen at −80° C. Cells are thawed as needed and subjected to pressure cavitation using a Dounce homogenizer to rupture cell membranes. Cell membranes are then collected by subjecting cell lysates to high-speed centrifugation at 20,000×g for 30 min at 4° C. Homogenization and centrifugation are repeated to enrich the sample for receptor-containing cell membranes. CHO-K1 cell membranes are the co-incubated with 1 nM [^3H]ketanserin and between 0.1 nM-10 μM of each compound for 2 h. Samples are then pipetted onto filter paper before being rinsed and washed by vacuum filtration three times, dried, and incubated overnight in scintillation fluid. […] Resulting data are then fit to a three-parameter non-linear regression to determine affinity (Ki). […] Data are expressed as mean±SEM."}, "[11]": {"conditions": "βarrestin2 recruitment, CHO-K1 h5HT2a"}},
  "note": "Read-outs that look alike come from different tables or passages of the source.",
  "data": [
    {"smiles": "CCc1cc(/C(C)=N/OCc2ccc(C3CCCCC3)c(C(F)(F)F)c2)ccc1CN1CC(C(=O)O)C1.CCc1cc(/C(C)=N/OCc2ccc(C3CCCCC3)c(C(F)(F)F)c2)ccc1CN1CC(C(=O)O)C1.O=C(O)/C=C/C(=O)O", "note": "[Crystalline Form A]", "values": [
      {"measurement": "hygroscopicity according to the EP hygroscopicity classification", "setting": "[1]; DVS, 25° C.", "value": "moderately hygroscopic"},
      {"measurement": "total mass difference between 0-95% RH", "setting": "[1]; DVS, 25° C.", "value": 3.6, "unit": "%"},
      {"measurement": "physical stability after the sorption-desorption cycle (XRPD)", "setting": "[1]; solid recovered after DVS", "value": "physically stable"}
    ]},
    {"smiles": "CCN(CC)C(=O)[C@@H]1C=C2c3cccc4[nH]cc(c34)C[C@H]2N(C)C1", "note": "[LSD]", "values": [
      {"measurement": "Emax (%) ± S.E.M.", "setting": "h5HT2a [2]", "value": "100 ± 9.9", "unit": "%"},
      {"measurement": "Emax (%) ± S.E.M.", "setting": "h5HT2a [3]", "value": "100 ± 16", "unit": "%"},
      {"measurement": "time of peak head-twitch effect post-compound administration", "setting": "C57BL/6 mice [4]; at several tested doses", "value": "around 7 min"}
    ]},
    {"smiles": "CNCCc1c[nH]c2cccc(O)c12", "note": "[Norpsilocin]", "values": [
      {"measurement": "Emax (%) ± S.E.M.", "setting": "h5HT2a [2]; Ca2+ release, CHO-K1 h5HT2a", "value": "45 ± 14", "unit": "%"},
      {"measurement": "Emax (%) ± S.E.M.", "setting": "h5HT2a [3]; [11]", "value": "2.9 ± 27", "unit": "%"}
    ]},
    {"smiles": "CN(C)CCc1c[nH]c2cccc(O)c12", "note": "[Psilocin]", "values": [
      {"measurement": "body temperature", "setting": "C57BL/6 mice [5]", "value": "dose-dependent hypothermia"},
      {"measurement": "pain perception (nociception)", "setting": "C57BL/6 mice [6]", "value": "significantly reduces pain perception peaking at 1 mg/kg"},
      {"measurement": "Emax", "setting": "h5HT2a [2]; Ca2+ release, CHO-K1 h5HT2a", "value": "89 ± 11", "unit": "%"},
      {"measurement": "Ca2+ release activity (in words)", "setting": "h5HT2a [2]; h5HT2a-dependent Ca2+ release", "value": "potent activator of Ca^2+ release"},
      {"measurement": "catalepsy", "setting": "C57BL/6 mice [7]", "value": "do not produce catalepsy"},
      {"measurement": "potency in Ca2+ release assay compared with βarrestin2 recruitment assay", "setting": "h5HT2a [3]; comparison of the two h5HT2a assays", "value": "greater in the Ca^2+ release assay than the βarrestin2 recruitment assay"},
      {"measurement": "βarrestin2 recruitment activity (in words)", "setting": "h5HT2a [3]; h5HT2a-dependent βarrestin2 recruitment", "value": "activator of βarrestin2 recruitment"},
      {"measurement": "Emax", "setting": "h5HT2a [3]; [11]", "value": "89 ± 22", "unit": "%"},
      {"measurement": "movement, velocity and time in the center of the open field", "setting": "C57BL/6 mice [8]", "value": "dose-dependent decrease in movement, velocity, and time in the center of the open field"},
      {"measurement": "head-twitch response", "setting": "C57BL/6 mice [4]; 0-10 min after administration", "value": "time-dependent head-twitch response"},
      {"measurement": "closed arm time", "setting": "C57BL/6 mice [9]; p=0.029, unpaired t-test", "value": "significantly reduces closed arm time"},
      {"measurement": "open arm time", "setting": "C57BL/6 mice [9]; p=0.12, unpaired t-test", "value": "but not open arm time"},
      {"measurement": "arm entries", "setting": "C57BL/6 mice [9]", "value": "no significant differences in arm entries"},
      {"measurement": "overall movement and velocity in EPM", "setting": "C57BL/6 mice [9]", "value": "trend toward reduced overall movement and velocity"}
    ]},
    {"smiles": "CN(C)CCc1c[nH]c2cccc(OP(=O)(O)O)c12", "note": "[Psilocybin]", "values": [
      {"measurement": "Emax", "setting": "h5HT2a [2]; Ca2+ release, CHO-K1 h5HT2a", "value": "69 ± 15", "unit": "%"},
      {"measurement": "EC50", "setting": "h5HT2a [2]; Ca2+ release, CHO-K1 h5HT2a, 0.1 nM-10 μM, 1 min", "value": 1500, "unit": "nM"},
      {"measurement": "Ki", "setting": "h5HT2a [10]", "value": 390, "unit": "nM"},
      {"measurement": "catalepsy", "setting": "C57BL/6 mice [7]", "value": "do not produce catalepsy"},
      {"measurement": "Emax", "setting": "h5HT2a [3]; [11]", "value": "-34 ± 5.9", "unit": "%"},
      {"measurement": "pEC50 ± S.E.M.", "setting": "h5HT2a [3]; βarrestin2 recruitment, CHO-K1 h5HT2a, 0.1 nM-10 μM, 2 h, AUC", "value": "Not Converged"}
    ]}
  ]
}
